The source of these data is patent US20210228560A1 (Centogene IP GmbH, priority 2011, published 2021).

Structures are written as SMILES. Numbering of substitutions follows the chain as printed. “Also recorded” adds a separate entry of the source. Read-outs that look alike come from different tables or passages of the source.

For experiment [1], the target named is GLA mutants (alpha-galactosidase A) (Homo sapiens, UniProt P06280, G328A). The note with it: GLA mutant G328A; Ambroxol in combination with DGJ.
Sequence of GLA mutants (alpha-galactosidase A) (Homo sapiens, UniProt P06280, G328A) (P06280 32-429 G328A): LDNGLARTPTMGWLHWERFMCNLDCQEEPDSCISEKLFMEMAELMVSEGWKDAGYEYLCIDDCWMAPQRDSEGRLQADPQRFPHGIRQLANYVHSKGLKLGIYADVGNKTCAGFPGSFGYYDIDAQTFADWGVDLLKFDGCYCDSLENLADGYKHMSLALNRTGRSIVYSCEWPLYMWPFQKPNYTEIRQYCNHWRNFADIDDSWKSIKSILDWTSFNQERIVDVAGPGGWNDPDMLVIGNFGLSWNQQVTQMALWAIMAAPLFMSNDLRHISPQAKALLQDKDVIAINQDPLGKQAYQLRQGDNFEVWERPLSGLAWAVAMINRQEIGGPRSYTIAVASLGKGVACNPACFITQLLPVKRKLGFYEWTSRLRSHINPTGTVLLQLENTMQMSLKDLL
The target of experiment [2] is GLA mutants (alpha-galactosidase A) (Homo sapiens, UniProt P06280, R301Q). The note with it: GLA mutant R301Q; Ambroxol in combination with DGJ.
Sequence of GLA mutants (alpha-galactosidase A) (Homo sapiens, UniProt P06280, R301Q) (P06280 32-429 R301Q): as the sequence (P06280 32-429 G328A) above, with R270Q, A297G counted along it
Experiment [3] deals with GLA mutants (alpha-galactosidase A) (Homo sapiens, UniProt P06280, M51I). The note with it: GLA mutant M51I; Ambroxol in combination with DGJ.
Sequence of GLA mutants (alpha-galactosidase A) (Homo sapiens, UniProt P06280, M51I) (P06280 32-429 M51I): as the sequence (P06280 32-429 G328A) above, with M20I, A297G counted along it
The target of experiment [4] is GLA mutants (alpha-galactosidase A) (Homo sapiens, UniProt P06280, R363H). The note with it: GLA mutant R363H; Ambroxol in combination with DGJ.
Sequence of GLA mutants (alpha-galactosidase A) (Homo sapiens, UniProt P06280, R363H) (P06280 32-429 R363H): as the sequence (P06280 32-429 G328A) above, with A297G, R332H counted along it
Experiment [5] has as its target GLA mutants (alpha-galactosidase A) (Homo sapiens, UniProt P06280, E59K). The note with it: GLA mutant E59K; Ambroxol in combination with DGJ.
Experiment [6] deals with GLA mutants (alpha-galactosidase A).
For experiment [7], the target named is GLA mutants (alpha-galactosidase A) (Homo sapiens, UniProt P06280, A156V). The note with it: GLA mutant A156V; Ambroxol in combination with DGJ.
Experiment [8] addresses GLA mutants (alpha-galactosidase A) (Homo sapiens, UniProt P06280, H225R). The note with it: GLA mutant H225R; Ambroxol in combination with DGJ.
The target in experiment [9] is GLA mutants (alpha-galactosidase A) (Homo sapiens, UniProt P06280, T410I). The note with it: GLA mutant T410I; Ambroxol in combination with DGJ.
Sequence of GLA mutants (alpha-galactosidase A) (Homo sapiens, UniProt P06280, T410I) (P06280 32-429 T410I): as the sequence (P06280 32-429 G328A) above, with A297G, T379I counted along it
Experiment [10] deals with GLA mutants (alpha-galactosidase A) (Homo sapiens, UniProt P06280, R356W). The note with it: GLA mutant R356W; Ambroxol in combination with DGJ.
Sequence of GLA mutants (alpha-galactosidase A) (Homo sapiens, UniProt P06280, R356W) (P06280 32-429 R356W): as the sequence (P06280 32-429 G328A) above, with A297G, R325W counted along it
Another experiment concerns the target T1, GLA[A156V] (Homo sapiens, UniProt P06280, A156V).
T1 sequence (P06280 32-429 A156V): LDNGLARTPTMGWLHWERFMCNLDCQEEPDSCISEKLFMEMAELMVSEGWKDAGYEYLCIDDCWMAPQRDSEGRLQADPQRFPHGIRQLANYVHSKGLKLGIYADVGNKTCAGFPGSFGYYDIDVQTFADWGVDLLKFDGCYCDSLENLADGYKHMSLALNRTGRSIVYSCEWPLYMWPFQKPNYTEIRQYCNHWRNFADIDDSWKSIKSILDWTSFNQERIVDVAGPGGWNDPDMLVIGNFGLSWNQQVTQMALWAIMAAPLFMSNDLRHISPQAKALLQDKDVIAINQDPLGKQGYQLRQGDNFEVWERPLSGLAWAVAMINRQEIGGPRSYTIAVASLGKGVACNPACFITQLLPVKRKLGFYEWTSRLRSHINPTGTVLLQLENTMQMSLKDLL
It counts as cell-based. The note with it: untreated = 1.0, FIG. 5A.

The target in experiment [11] is T2, Wild type α-galactosidase A (Replagal®, agalsidase alfa) (Homo sapiens, UniProt P06280).
T2 construct: purchased Shire Pharmaceuticals Replagal
T2 sequence (P06280 32-429): T1 sequence (P06280 32-429 A156V) with V125A
Description: Inhibition of agalsidase alfa (Replagal), cell free. The class given is biochemical. The note with it: for reduction of the enzyme activity, Ambroxol only: FIG. 8 inlay.

Sequence of GLA mutants (alpha-galactosidase A) (Homo sapiens, UniProt P06280, E59K) (P06280 32-429 E59K): as the sequence (P06280 32-429 G328A) above, with E28K, A297G counted along it
Sequence of GLA mutants (alpha-galactosidase A) (Homo sapiens, UniProt P06280, H225R) (P06280 32-429 H225R): as the sequence (P06280 32-429 G328A) above, with H194R, A297G counted along it

On to `Nc1c(Br)cc(Br)cc1CN[C@H]1CC[C@H](O)CC1` [Ambroxol, 2-amino-3,5-dibromo-N-[trans-4-hydroxycyclohexyl]benzylamine], for which the “additive Ambroxol effect demonstrated” value in experiment [1] was “* (*p≤0.1)”; in experiment [2] it was “**** (****p≤0.005)”; in [3], “** (**p≤0.05)”; in experiment [4], “*** (***p≤0.01)”; in experiment [5], “**** (****p≤0.005)”; in experiment [7] it was “**** (****p≤0.005)”. Further, the “additive Ambroxol effect demonstrated” value is given as “** (**p≤0.05)” in [8], “* (*p≤0.1)” in experiment [9] and “**** (****p≤0.005)” in experiment [10]. In [6] (40 μM Ambroxol alone, FIG. 1), the “effect on enzyme activity of the mutant forms of GLA” value is “no effect”. Besides, in experiment [6] (compared to Galactose only, 100 mM galactose and 40 μM Ambroxol (FIG. 3B)), the “activity of mutant alpha-galactosidase A, Ambroxol together with Galactose” value is listed as “increased”. Besides, the “significance of protein activity, Ambroxol and DGJ compared to DGJ alone” value in experiment [6] (mutations E59K, A156V and G328A, FIG. 6) is given as “significant”. Besides, the “increase of GLA[A156V] activity” value is 3.8 fold on GLA[A156V] (8 μM DGJ and 40 μM Ambroxol); “up to 8 fold” on GLA[A156V] (20 μM DGJ and 40 μM Ambroxol). Also, the “effect of Ambroxol on the inhibition of WT α-galactosidase A by DGJ” value in experiment [11] (40 μM Ambroxol) was “no effect”. The “effect of Ambroxol alone on the enzyme in the cell free assay” value in experiment [11] (cell free) is “not inhibited; also recorded: neither an inhibitory nor a stimulating effect”. Further, the “reduction of the enzyme activity, Ambroxol only” value in experiment [11] (pH 4.5) and in [11] (pH 6.7) was “No reduction” in each case.
